Measurements reported in publication PMC10619133, “The catechol moiety of obafluorin is essential for antibacterial activity” (RSC Chemical Biology, 2023).
In brackets after ≈: the same amount, converted by molar mass. Entries after “also recorded” stand apart in the source; their conditions may differ. Read-outs that look alike come from different tables or passages of the source.

What was measured:
S. aureus = assay: Bioassay of control antibiotics with and without additional Fe3+; format: cell-based
Description: (§1) The method was the same as for the antibacterial MIC assays described above, with the following modifications: for excess iron, Fe(NO3)3·9H2O stock (400 mM) was added to give a final concentration of 1.5 or 2.0 mM; for iron depletion, bipy stock (1 M) was added to give a final concentration of 150 μM. For MRSA, 1 was further diluted to 0.5 0.25 and 0.125 μg mL^−1 due to a decrease in MIC under excess iron conditions. The general effect of excess iron on the activity of alternative antibiotics was determined by performing a similar serial dilution of carbenicillin, kanamycin, streptomycin, nitrofurantoin and chloramphenicol in the presence of Fe^3+.

E. coli 25922 = assay: Spot-on-lawn MIC bioassay; format: cell-based, E. coli ATCC 25922; details: for lowest concentration which gave an inhibition zone: - Fe3+; for MIC: Escherichia coli, 25922, spot-on-lawn
Description: (§2) Indicator strains were grown for 16–18 h in LB (5 mL) by inoculation from a single colony. An aliquot of the resulting culture (500 μL) was then used to inoculate LB (50 mL in 250 mL Erlenmeyer flasks), followed by orbital shaking at 250 rpm until they reached an OD600 of 0.3–0.4. These cultures were then diluted 1 : 10 with molten soft nutrient agar (SNA), before pouring into appropriately sized Petri dishes to set. Serial dilutions of the test compounds (from 256 μg mL^−1 to 1 μg mL^−1 plus an additional sample at 1000 μg mL^−1) were prepared in acetonitrile (ACN), and 4 μL of each sample was applied directly onto the SNA surface. Kanamycin (50 μg mL^−1), apramycin (50 μg mL^−1) or aureobasidin A (0.2 μg mL^−1) were used as positive controls, as appropriate, and ACN or water (4 μL) were used as negative controls. […] Experiments were carried out in at least triplicate for each strain.
as §1

MRSA = assay: Spot-on-lawn MIC bioassay; format: cell-based, Methicillin-resistant Staphylococcus aureus; details: spot-on-lawn; for antibacterial activity (in words): Fig. S13; for MIC: Staphylococcus aureus, MRSA
Description: as §2, §1

S. cerevisiae = assay: Spot-on-lawn MIC bioassay; format: cell-based, S. cerevisiae NCYC 2939; details: Saccharomyces cerevisiae
Description: as §2

E. coli NR698 = assay: Spot-on-lawn MIC bioassay; format: cell-based; details: Escherichia coli
Description: as §2

[1] = Hydrolysis of the β-lactone in HEPES buffer monitored by HPLC; format: physicochemical; details: for effect of added Fe^3+ on hydrolysis (in words): Fe^3+ 1 mM, HEPES 100 mM, pH 6.0–8.0, 30 min; for hydrolysis of β-lactone (in words): pH 8.0, HEPES 100 mM, 30 min, no Fe^3+
Description: Hydrolysis of 1–4 was analysed on an Agilent 1290 system fitted with an Agilent LC/MSD MS spectrometer. A Kinetex XB-C18, 100 × 4.6 mm, 5 μM column (Phenomenex) was used with a gradient elution: ACN/0.1% (v/v) FA (H2O) gradient from 5/95 for 0–0.5 min, 5/95 to 98/2 0.5–12 min, 98/2 for 12–13 min, gradient to 5/95 13–13.5 min and 5/95 for 13.5–15 min. The flow rate was 0.6 mL min^−1 and the injection volume of each sample 5 μL. DAD signals were analysed at 270 nm, with a bandwidth of 4 nm. MS were recorded in positive mode using an atmospheric pressure ionisation electrospray (API-ES) ion source with a capillary voltage of 3000 V. The drying gas temperature was 350 °C with a flow rate of 12 L min^−1. The scan parameters were: mass range = 200–1500; fragmentor = 70; gain EMV = 1.0; threshold = 150; step-size = 0.10. Data were analysed with Agilent ChemStation software.
Five solutions of HEPES buffer (111 mM) were prepared at pH 6.0, 6.5, 7.0, 7.5 and 8.0 respectively. A further five solution of HEPES buffer (111 mM) with Fe(NO3)3.9H2O ([…]) were also prepared at pH 6.0, 6.5, 7.0, 7.5, 8.0 respectively. Stock solutions of 1–4 (10 mM) were prepared in DMSO. For each hydrolysis experiment, stock solution of 1–4 (10 μL) was added the HEPES buffer (90 μL) or the HEPES + Fe(NO3)3.9H2O buffer (90 μL), to give final concentrations of HEPES (100 mM), 1–4 (1 mM) and Fe^3+ (0 or 1 mM). The reaction mixtures were shaken using a bench top vortex and left to stand for 30 min, after which the samples were analysed by HPLC using the Analytical HPLC method. All stock solutions of 1–4 were tested at every pH, with and without Fe^3+ and all experiments were repeated in triplicate.

PfThrRS = PfThrRS (Pseudomonas fluorescens, UniProt C3JZN7); assay: Aminoacylation assay; format: biochemical, P. fluorescens; details: for IC100: read-out: concentration of full inhibition
Description: (§3) To measure the effects of 1–4 on ThrRS canonical tRNA charging activity, an assay modified from that reported by Ruan et al.[53] was used, where active enzyme was incubated with its necessary substrates and its activity measured using ^14C labeled Thr and a liquid scintillation counter. Purified ThrRS protein (10 nM) was pre-incubated with varying concentrations of compounds 1–4 or ACN for 10 min. After pre-incubation, ThrRS samples were added to a master reaction mixture with the final component concentrations of HEPES (100 mM, pH 7.0), ATP (4 mM), MgCl2 (10 mM), L-[U-^14C]threonine (50 μM, Moravek Inc.), and tRNA^Thr (5 μM). This mixture was incubated at room temperature for 10 min, with samples taken at 1, 2.5, 5, and 10 min. At each time point, a 7 μL aliquot was spotted onto a 5% trichloroacetic acid (TCA) presoaked 3 MM Whatman paper (Cytiva) squares (repeated in triplicate). After allowing the spots to dry, the Whatman paper was washed three times with 5% TCA, and once with 95% EtOH. The Whatman paper was dried and the counts on each square of paper analyzed using a Tri-Carb 2910 TR liquid scintillation counter using Hydrofluor Liquid Scintillation Fluid (National Diagnostics). To calculate IC50 values, fractional initial velocities (velocity of inhibited reaction/velocity in the absence of inhibitor) were plotted against the log of 1 concentration and then fitted to eqn (1), using GraphPad Prism.1 [drawing 1]

B. subtilis = assay: Spot-on-lawn MIC bioassay; format: cell-based, B. subtilis EC 1524; details: Bacillus subtilis
Description: as §2

EcThrRS = target: T1, EcThrRS (Escherichia coli, UniProt P0A8M3); assay: Aminoacylation assay; format: biochemical, E. coli; details: for concentration at which complete inhibition was observed / IC50: enzyme 10 nM; for IC50: 10 min preincubation with compound; for fold less potent than 1: ratio of IC50 values
T1 construct: His6 (N); made in house; host or cells: E. coli NiCo21(DE3)
Description: as §3

[2] = Figure S8 legend, read-out: Minimum inhibitory concentration
[3] = standard conditions, read-out: MIC
[4] = Figure S12 legend, read-out: Minimum inhibitory concentration
[5] = NR698, read-out: Minimum inhibitory concentration
[6] = Figure S10 legend, read-out: Minimum inhibitory concentration
[7] = Figure S9 legend, read-out: Minimum inhibitory concentration

PfThrRS, sequence (C3JZN7 whole entry): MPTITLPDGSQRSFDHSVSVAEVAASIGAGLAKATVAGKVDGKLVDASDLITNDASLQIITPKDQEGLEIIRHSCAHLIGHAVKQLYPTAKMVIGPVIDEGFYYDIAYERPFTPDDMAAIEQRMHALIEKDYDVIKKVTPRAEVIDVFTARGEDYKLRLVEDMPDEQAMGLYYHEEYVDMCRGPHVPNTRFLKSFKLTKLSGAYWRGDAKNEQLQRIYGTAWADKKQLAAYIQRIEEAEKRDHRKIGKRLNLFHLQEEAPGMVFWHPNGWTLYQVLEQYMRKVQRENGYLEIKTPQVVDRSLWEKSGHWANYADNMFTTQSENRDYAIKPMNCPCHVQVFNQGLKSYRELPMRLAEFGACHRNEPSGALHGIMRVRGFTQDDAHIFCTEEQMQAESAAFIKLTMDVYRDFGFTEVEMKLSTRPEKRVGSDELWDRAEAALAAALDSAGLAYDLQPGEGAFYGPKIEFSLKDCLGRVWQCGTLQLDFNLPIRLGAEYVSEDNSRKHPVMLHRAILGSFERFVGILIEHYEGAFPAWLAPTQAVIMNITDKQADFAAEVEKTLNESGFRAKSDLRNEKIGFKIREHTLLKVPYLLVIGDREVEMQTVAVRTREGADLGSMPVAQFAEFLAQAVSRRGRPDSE
T1 sequence (P0A8M3 whole entry): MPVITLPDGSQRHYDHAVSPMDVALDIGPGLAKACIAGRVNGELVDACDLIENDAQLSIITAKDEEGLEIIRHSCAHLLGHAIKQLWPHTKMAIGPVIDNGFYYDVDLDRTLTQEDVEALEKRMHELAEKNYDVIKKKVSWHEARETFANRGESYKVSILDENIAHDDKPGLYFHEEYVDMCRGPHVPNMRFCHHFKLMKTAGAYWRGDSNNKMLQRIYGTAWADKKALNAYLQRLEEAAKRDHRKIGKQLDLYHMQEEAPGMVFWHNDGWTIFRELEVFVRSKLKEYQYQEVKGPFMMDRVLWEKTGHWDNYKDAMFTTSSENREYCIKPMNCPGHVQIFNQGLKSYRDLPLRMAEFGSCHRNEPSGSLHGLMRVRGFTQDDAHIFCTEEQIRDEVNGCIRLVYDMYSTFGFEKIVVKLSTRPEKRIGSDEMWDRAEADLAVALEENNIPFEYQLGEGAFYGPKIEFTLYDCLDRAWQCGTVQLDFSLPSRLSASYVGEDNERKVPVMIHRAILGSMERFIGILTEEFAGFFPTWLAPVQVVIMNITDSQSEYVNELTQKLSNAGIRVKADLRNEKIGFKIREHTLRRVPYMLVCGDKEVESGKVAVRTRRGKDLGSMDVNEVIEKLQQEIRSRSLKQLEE

NC[C@H]1O[C@H](O[C@H]2[C@H](O)[C@@H](O[C@H]3O[C@H](CO)[C@@H](O)[C@H](N)[C@H]3O)[C@H](N)C[C@@H]2N)[C@H](O)[C@@H](O)[C@@H]1O [Kanamycin, kanamycin, reference compound]
lowest concentration which gave an inhibition zone (S. aureus): 50 µg/mL
lowest concentration which gave an inhibition zone (E. coli 25922): 50 µg/mL

O=C1CN(/N=C/c2ccc([N+](=O)[O-])o2)C(=O)N1 [Nitrofurantoin, nitrofurantoin, reference compound]
lowest concentration which gave an inhibition zone (S. aureus): 500 µg/mL
lowest concentration which gave an inhibition zone (E. coli 25922): 500 µg/mL

[H]/N=C(/N)N[C@H]1[C@H](O)[C@@H](O)[C@H](O[C@@H]2O[C@@H](C)[C@](O)(C=O)[C@H]2O[C@@H]2O[C@@H](CO)[C@H](O)[C@@H](O)[C@@H]2NC)[C@@H](N/C(N)=N\[H])[C@@H]1O [Streptomycin, streptomycin, reference compound]
lowest concentration which gave an inhibition zone (S. aureus): 50 µg/mL
lowest concentration which gave an inhibition zone (E. coli 25922): 50 µg/mL

COC(=O)[C@@H](NC(=O)c1cccc(O)c1O)[C@H](O)Cc1ccc([N+](=O)[O-])cc1 [compound 6, β-lactone methanolysed obafluorin]
antibacterial activity (in words) (MRSA): inactive

O=C(N[C@H](C(=O)O)[C@H](O)Cc1ccc([N+](=O)[O-])cc1)c1ccccc1 [compound 7, β-lactone hydrolysed BA-obafluorin]
antibacterial activity (in words) (MRSA): inactive

O=C(N[C@H](CO)[C@H](O)c1ccc([N+](=O)[O-])cc1)C(Cl)Cl [Chloramphenicol, chloramphenicol, reference compound]
lowest concentration which gave an inhibition zone (S. aureus): 1000 µg/mL
lowest concentration which gave an inhibition zone (E. coli 25922): 1000 µg/mL

CN[C@@H]1[C@@H](O[C@H]2O[C@H](CO)[C@@H](N)[C@H](O)[C@H]2O)OC2C[C@@H](N)[C@@H](O[C@H]3[C@H](O)[C@@H](O)[C@H](N)C[C@@H]3N)OC2[C@@H]1O (some centres unmarked) [Apramycin, apramycin, reference compound]
lowest concentration which gave an inhibition zone (S. aureus): 50 µg/mL
lowest concentration which gave an inhibition zone (E. coli 25922): 50 µg/mL

O=C(N[C@@H]1C(=O)O[C@@H]1Cc1ccc([N+](=O)[O-])cc1)c1cccc(O)c1 [compound 3, 3-HBA-obafluorin]
MIC (MRSA; [2]): 1000 µg/mL (≈ 2920 µM)
MIC (MRSA; [3]): 1000 µg/mL (≈ 2920 µM)
MIC (S. cerevisiae; [4]): > 1000 µg/mL
MIC (S. cerevisiae; [3]): > 1000 µg/mL
MIC (E. coli NR698; NR698): > 1000 µg/mL
MIC (E. coli NR698; [5]): > 1000 µg/mL
MIC (E. coli 25922; [6]): > 1000 µg/mL
MIC (E. coli 25922; [3]): > 1000 µg/mL
effect of added Fe^3+ on hydrolysis (in words) [1]: no effect
hydrolysis of β-lactone (in words) [1]: mainly hydrolysed
IC100 (PfThrRS; enzyme 10 nM): 5 µM
MIC (B. subtilis; [7]): 1000 µg/mL (≈ 2920 µM)
MIC (B. subtilis; [3]): 1000 µg/mL (≈ 2920 µM)
concentration at which complete inhibition was observed (EcThrRS): 5000 nM
IC50 (EcThrRS; read-out: IC50): 0.93 ± 0.08 µM
fold less potent than 1 (EcThrRS): ~30 fold

CC1(C)S[C@@H]2[C@H](NC(=O)C(C(=O)O)c3ccccc3)C(=O)N2[C@H]1C(=O)O (some centres unmarked) [Carbenicillin, carbenicillin, reference compound]
lowest concentration which gave an inhibition zone (S. aureus): 50 µg/mL
lowest concentration which gave an inhibition zone (E. coli 25922): 1000 µg/mL

O=C(N[C@H](C(=O)O)[C@H](O)Cc1ccc([N+](=O)[O-])cc1)c1cccc(O)c1O [compound 5, β-lactone hydrolysed obafluorin]
antibacterial activity (in words) (MRSA): inactive

O=C(N[C@@H]1C(=O)O[C@@H]1Cc1ccc([N+](=O)[O-])cc1)c1ccccc1O [compound 2, 2-HBA-obafluorin]
MIC (MRSA; [2]): 1000 µg/mL (≈ 2920 µM)
MIC (MRSA; [3]): > 1000 µg/mL
MIC (S. cerevisiae; [4]): > 1000 µg/mL
MIC (S. cerevisiae; [3]): > 1000 µg/mL
MIC (E. coli NR698; NR698): 1000 µg/mL (≈ 2920 µM)
MIC (E. coli NR698; [5]): > 1000 µg/mL
MIC (E. coli 25922; [6]): > 1000 µg/mL
MIC (E. coli 25922; [3]): > 1000 µg/mL
effect of added Fe^3+ on hydrolysis (in words) [1]: no effect
hydrolysis of β-lactone (in words) [1]: mainly hydrolysed
IC100 (PfThrRS; enzyme 10 nM): 10 µM
MIC (B. subtilis; [7]): 1000 µg/mL (≈ 2920 µM)
MIC (B. subtilis; [3]): 1000 µg/mL (≈ 2920 µM)
concentration at which complete inhibition was observed (EcThrRS): 10 000 nM
IC50 (EcThrRS; read-out: IC50): 3.7 ± 0.7 µM
fold less potent than 1 (EcThrRS): approximately 100 fold

O=C(N[C@@H]1C(=O)O[C@@H]1Cc1ccc([N+](=O)[O-])cc1)c1ccccc1 [compound 4, BA-obafluorin]
MIC (MRSA; [2]): > 1000 µg/mL
MIC (MRSA; [3]): 1000 µg/mL (≈ 3060 µM)
MIC (S. cerevisiae; [4]): > 1000 µg/mL
MIC (S. cerevisiae; [3]): > 1000 µg/mL
MIC (E. coli NR698; NR698): > 1000 µg/mL
MIC (E. coli NR698; [5]): > 1000 µg/mL
MIC (E. coli 25922; [6]): > 1000 µg/mL
MIC (E. coli 25922; [3]): > 1000 µg/mL
hydrolysis of β-lactone (in words) [1]: no hydrolysis; also recorded: stable to hydrolysis
IC50 (PfThrRS; enzyme 10 nM, 10 min preincubation with compound): not inhibited; also recorded: No inhibition
inhibition of aminoacylation (in words) (PfThrRS; up to 25000 nM): no significant inhibition
MIC (B. subtilis; [7]): > 1000 µg/mL
MIC (B. subtilis; [3]): > 1000 µg/mL
IC50 (EcThrRS): No inhibition
inhibition of aminoacylation (in words) (EcThrRS; up to the highest concentration tested (0–25 μM)): no significant inhibition
